In patent US6335366B2, “Naphthyloxy acetic acid derivatives and a pharmaceutical composition comprising them as an active ingredient” (Ono Pharmaceutical Co., Ltd., priority 1996, dated 2002):

Biological target: T1, prostanoide receptor subtype (mouse EP3α) (Mus musculus, UniProt P30557)
T1 construct: expressed in transfected cells; host or cells: CHO cells (membrane fraction)
T1 sequence (P30557 1-365): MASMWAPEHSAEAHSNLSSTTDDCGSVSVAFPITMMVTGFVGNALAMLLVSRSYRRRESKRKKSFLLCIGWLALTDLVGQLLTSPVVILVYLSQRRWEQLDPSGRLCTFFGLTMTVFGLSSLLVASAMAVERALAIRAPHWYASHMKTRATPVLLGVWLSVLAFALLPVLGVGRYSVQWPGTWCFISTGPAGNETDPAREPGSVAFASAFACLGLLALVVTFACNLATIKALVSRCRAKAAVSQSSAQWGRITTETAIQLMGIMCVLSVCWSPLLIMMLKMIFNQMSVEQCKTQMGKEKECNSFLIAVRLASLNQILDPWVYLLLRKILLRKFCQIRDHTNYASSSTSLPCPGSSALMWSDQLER
Assay: Binding assay using expression cell of prostanoide receptor subtype ([3H]-PGE2 competition, CHO cell membrane fraction)
Conditions: [3H]-PGE2 2.5 nM; membrane fraction of CHO cells expressing mouse EP3α; Ki = IC50/(1+([C]/Kd)); read-out: dissociation constant Ki
Method: For example, in standard laboratory test, the effects of the compounds of the present invention were confirmed by inhibitory effect on binding PGE2 using expression cell of receptor.
(I) Binding Assay using Expression Cell of Prostanoide Receptor Subtype
The preparation of membrane fraction was carried out according to the method of Sugimoto et al (J. Biol. Chem. 267, 6463-6466 (1992)), using expression CHO cell of prostanoide receptor subtype (mouse EP3α).
The standard assay mixture contained membrane fraction (0.5 mg/ml), [^3H]-PGE2 in a final volume of […] was incubated for 1 hour at room temperature. The reaction was terminated by addition of 3 ml of ice-cold buffer. The mixture was rapidly filtered through a glass filter (GF/B). The radioactivity associated with the filter was measured by liquid scintillation counting.
Kd and Bmax values were determined from Scatchard plots (Ann. N.Y. Acad. Sci., 51, 660 (1949)). Non-specific binding was calculated as the bond in the presence of an excess ([…]) of unlabeled PGE2. In the experiment for competition of specific [^3H]-PGE2 binding by the compounds of the present invention, [^3H]-PGE2 was added at a concentration of 2.5 nM and the compounds of the present invention were at a concentration of 1 mM. Buffer: 10 mM potassium phosphate (pH6.0), 1 mM EDTA, 10 mM MgCl2, 0.1 M NaCl.
The dissociation constant Ki (μM) of each compound was calculated by the following equation.

| SMILES | Ki [µM] |
| --- | --- |
| O=C(O)COc1cccc2c(CCS(=O)(=O)CC(O)COc3ccccc3)cccc12 (stereo not shown) [3(2), 2-{5-[2-(2RS-Hydroxy-3-phenoxypropylsulfonyl)ethyl]-1-naphthyloxy}acetic Acid] | 0.0099 |
| O=C(O)COc1cccc2c(C[S+]([O-])CC(O)COc3ccccc3)cccc12 (stereo not shown) [3(6), 2-[5-(2RS-Hydroxy-3-phenoxypropylsulfinyl)methyl-1-naphthyloxy]acetic Acid] | 0.15 |
| O=C(O)COc1cccc2c(CCCSCC(O)c3ccccc3)cccc12 (stereo not shown) [3(8), 2-{5-[3-(2RS-Hydroxy-2-phenylethylthio)propyl]-1-naphthyloxy}acetic Acid] | 2 |
| O=C(O)COc1cccc2c(CCCS(=O)(=O)/C=C/c3ccccc3)cccc12 [5(1), 2-[5-(3-Styrylsulfonylpropyl)-1-naphthyloxy]acetic Acid] | 0.0086 |
| O=C(O)COc1cccc2c(CCSCC(O)COc3ccccc3)cccc12 (stereo not shown) [compound 3] | 0.048 |
| O=C(O)COc1cccc2c(CCC[S+]([O-])/C=C/c3ccccc3)cccc12 (stereo not shown) [compound 5] | 0.08 |

System: not given
Assay: not given
Conditions: not given

| SMILES | melting point [°C] |
| --- | --- |
| O=C(O)COc1cccc2c(CCSC[C@H](O)COc3ccccc3)cccc12 [3(3), 2-{5-[2-(2R-Hydroxy-3-phenoxypropylthio)ethyl]-1-naphthyloxy}acetic Acid] | 114 to 115.5 |
| O=C(O)COc1cccc2c(CCSCC(O)COc3ccccc3)cccc12 (stereo not drawn) [3(4), 2-{5-[2-(2S-Hydroxy-3-phenoxypropylthio)ethyl]-1-naphthyloxy}acetic Acid] | 114 to 115.5 |
| O=C(O)COc1cccc2c(CSCC(O)COc3ccccc3)cccc12 (stereo not shown) [3(5), 2-[5-(2RS-Hydroxy-3-phenoxypropylthio)methyl-1-naphthyloxy]acetic Acid] | 105 to 107 |
| O=C(O)COc1cccc2c(CS(=O)(=O)CC(O)COc3ccccc3)cccc12 (stereo not shown) [3(7), 2-[5-(2RS-Hydroxy-3-phenoxypropylsulfonyl)methyl-1-naphthyloxy]acetic Acid] | 186 to 190 |
